Read-outs that look alike come from different tables or passages of the source.
Key:
[1] = tested on: Human breast cancer cells MCF-7; assay: growth inhibition of tumor cell MCF-7 (MTT colorimetric method); type: cell-based; settings: for efficacy: MCF-7, assessment of results; for inhibition at 0.01 µM / inhibition at 0.1 µM / inhibition at 1 µM / inhibition at 10 µM / inhibition at 100 µM: Homo sapiens, read-out: growth inhibition rate
Source text: (§1) The compounds synthesized from the present invention were studied by sulforhodamine B protein staining (sulfothodalnine B, SRB) and miceroculture tetrazolinetetrozohuln (MTT) colorimetric method respectively for in vitro anti-tumor activity (Cancer Res., 1988, 48 (3): 589).
(§2) The concentration gradient of the test compounds of the present invention is 10^−4M, 10^−5M, 10^−6M, 10^−7M, 10^−8M, and the test compounds are 6-methoxy methyl ester gambogenic acid, ethyl ester gambogenic acid, 6-ethoxy ethyl ester gambogenic acid, 6-acyl gambogenic acid, piperidine gambogenic acid, diethylamide gambogenic acyl, morpholine gambogenic acid, and 12-hydroxy gambogenic acid, and 8,9-epoxy gambogenic acid. The test compounds and positive control gambogenic acid were diluted with dimethyl sulfoxide. Inhibition rate(%)=[(control group OD value−administered group OD value)/control group OD value]×100%
Human breast cancer cells MCF-7 were cultured in DMEM containing 10% FBS, the cell with long-growth phase was formed into suspension and cultured in 96-well plates. The test compounds as experimental group with different concentrations were added into each well of the 96-well plates. Blank control group received an equal volume containing the highest concentration of solvent (ie, 10^−4M dimethyl sulfoxide) in DMEM. After incubation at 37° C. under 5% carbon dioxide conditions for 72 hours, each well was added with MTT to 1 mg/ml final concentration for incubation for 4 hours. The supernatant solution in each well was aspirated and added with 200 μl DMSO to dissolve crystals, and then OD values were measured at 490 nm by an automatic plate reader spectrophotometer. A tumor cell group without drugs is a blank control group.

[2] = tested on: Human oral squamous cells carcinoma Cal27; assay: growth inhibition of tumor cell Cal27 (SRB staining); type: cell-based; settings: for efficacy: Cal27, assessment of results; for inhibition at 0.01 µM / inhibition at 0.1 µM / inhibition at 1 µM / inhibition at 10 µM / inhibition at 100 µM: Homo sapiens, read-out: growth inhibition rate
Source text: as §1, §2
Human oral squamous cells carcinoma Cal27 were cultured in DMEM containing 10% fetal bovine serum (FBS), the cells with long-growth phase were forming suspension and culturing in 96-well plates. 10 μl test compounds of different concentrations as experimental group were added into each well of the 96-well plates. Blank control group received an equal volume containing the highest concentration of solvent (ie, 10^−4M dimethyl sulfoxide) in DMEM. After incubation at 37° C. under 5% carbon dioxide conditions for 72 hours, the cells were fixed with trichloroacetic acid, and each well was added with 100 μl SRB solution, unbound SRB was washed away, and then OD values were measured at 550 nm by an automatic plate reader spectrophotometer. A tumor cell group without drugs is a blank control group.

mouse leukemia L1210 = settings: compared with garcinia acid; cited from earlier work
[3] = MCF7, MCF-7, 10^−4M, 72 hours, MTT
[4] = MCF7, MCF-7, 10^−5M, 72 hours, MTT
[5] = MCF7, MCF-7, 10^−6M, 72 hours, MTT
[6] = MCF7, MCF-7, 10^−7M, 72 hours, MTT
[7] = MCF7, MCF-7, 10^−8M, 72 hours, MTT
[8] = CAL-27, Cal27, 10^−4M, 72 hours, SRB
[9] = CAL-27, Cal27, 10^−5M, 72 hours, SRB
[10] = CAL-27, Cal27, 10^−6M, 72 hours, SRB
[11] = CAL-27, Cal27, 10^−7M, 72 hours, SRB
[12] = CAL-27, Cal27, 10^−8M, 72 hours, SRB

Compound	growth inhibition rate ([1]; MCF-7, 10^−4M, 72 hours, MTT) [%]	growth inhibition rate ([1]; MCF-7, 10^−5M, 72 hours, MTT) [%]	growth inhibition rate ([1]; MCF-7, 10^−6M, 72 hours, MTT) [%]	growth inhibition rate ([1]; MCF-7, 10^−7M, 72 hours, MTT) [%]	growth inhibition rate ([1]; MCF-7, 10^−8M, 72 hours, MTT) [%]	efficacy [1]	growth inhibition rate ([2]; Cal27, 10^−4M, 72 hours, SRB) [%]	growth inhibition rate ([2]; Cal27, 10^−5M, 72 hours, SRB) [%]	growth inhibition rate ([2]; Cal27, 10^−6M, 72 hours, SRB) [%]	growth inhibition rate ([2]; Cal27, 10^−7M, 72 hours, SRB) [%]	growth inhibition rate ([2]; Cal27, 10^−8M, 72 hours, SRB) [%]	efficacy [2]	further results
CCOC(=O)/C(C)=C\CC12OC(C)(C)C3CC(C=C4C(=O)c5c(OCC)c(C/C=C(\C)CCC=C(C)C)c(O)c(CC=C(C)C)c5OC431)C2=O (stereo not shown) [6-ethoxy ethyl ester gambogenic acid, 6-ethoxyl gambogenic acid ethyl ester]	100	100	86	0	0	potent (Potent: 10^−6M inhibition rate≧75% or 10^−7M inhibition rate>50%)	100	100	94	0	0	potent (Potent: 10^−6M inhibition rate≧75% or 10^−7M inhibition rate>50%)	–
CC(C)=CCC/C(C)=C/Cc1c(O)c(CC=C(C)C)c2c(c1O)C(=O)C1=CC3CC4C(C)(C)OC(C/C=C(/C)C(=O)N5CCOCC5)(C3=O)C14O2 (stereo not shown) [morpholine gambogenic acid]	100	100	78	14	0	potent (Potent: 10^−6M inhibition rate≧75% or 10^−7M inhibition rate>50%)	100	100	100	14	0	potent (Potent: 10^−6M inhibition rate≧75% or 10^−7M inhibition rate>50%)	–
6-acyl gambogenic acid	100	100	83	0	0	potent (Potent: 10^−6M inhibition rate≧75% or 10^−7M inhibition rate>50%)	100	100	96	0	0	potent (Potent: 10^−6M inhibition rate≧75% or 10^−7M inhibition rate>50%)	–
CC(C)=CCC/C(C)=C/Cc1c(O)c(CC=C(C)C)c2c(c1O)C(=O)C1=CC3CC4C(C)(C)OC(C/C=C(/C)C(=O)O)(C3=O)C14O2 (stereo not shown) [gambogenic acid, Gambogenic acid]	–	–	–	–	–	invalid (Invalid: 10^−5M inhibition rate<85%)	–	–	–	–	–	invalid (Invalid: 10^−5M inhibition rate<85%)	inhibition at 0.01 µM ([1]; MCF7, 72 h): 0%; inhibition at 0.1 µM ([1]; MCF7, 72 h): 0%; inhibition at 1 µM ([1]; MCF7, 72 h): 0%; inhibition at 10 µM ([1]; MCF7, 72 h): 100%; inhibition at 100 µM ([1]; MCF7, 72 h): 100%; inhibition at 0.01 µM ([2]; CAL-27, 72 h): 0%; inhibition at 0.1 µM ([2]; CAL-27, 72 h): 0%; inhibition at 1 µM ([2]; CAL-27, 72 h): 5%; inhibition at 10 µM ([2]; CAL-27, 72 h): 100%; inhibition at 100 µM ([2]; CAL-27, 72 h): 100%; highest survival rate extended, relative to garcinia acid (mouse leukemia L1210): up to 2.45 times
CCOC(=O)/C(C)=C\CC12OC(C)(C)C3CC(C=C4C(=O)c5c(O)c(C/C=C(\C)CCC=C(C)C)c(O)c(CC=C(C)C)c5OC431)C2=O (stereo not shown) [ethyl ester gambogenic acid]	100	100	96	0	0	potent (Potent: 10^−6M inhibition rate≧75% or 10^−7M inhibition rate>50%)	100	100	98	0	0	potent (Potent: 10^−6M inhibition rate≧75% or 10^−7M inhibition rate>50%)	–
CCN(CC)C(=O)/C(C)=C\CC12OC(C)(C)C3CC(C=C4C(=O)c5c(O)c(C/C=C(\C)CCC=C(C)C)c(O)c(CC=C(C)C)c5OC431)C2=O (stereo not shown) [diethylamide gambogenic acyl]	100	100	84	0	0	potent (Potent: 10^−6M inhibition rate≧75% or 10^−7M inhibition rate>50%)	100	100	100	23	0	potent (Potent: 10^−6M inhibition rate≧75% or 10^−7M inhibition rate>50%)	–
CC(C)=CCC/C(C)=C/Cc1c(O)c(CC=C(C)C)c2c(c1O)C(=O)C1=CC3CC4C(C)(C)OC(C/C=C(\C)C(=O)O)(CC3O)C14O2 (stereo not shown) [12-hydroxy gambogenic acid]	–	–	–	–	–	potent (Potent: 10^−6M inhibition rate≧75% or 10^−7M inhibition rate>50%)	–	–	–	–	–	potent (Potent: 10^−6M inhibition rate≧75% or 10^−7M inhibition rate>50%)	inhibition at 100 µM [1, 3]: 100%; inhibition at 10 µM [1, 4]: 100%; inhibition at 1 µM [1, 5]: 82%; inhibition at 0.1 µM [1, 6]: 0%; inhibition at 0.01 µM [1, 7]: 0%; inhibition at 100 µM [2, 8]: 100%; inhibition at 10 µM [2, 9]: 100%; inhibition at 1 µM [2, 10]: 100%; inhibition at 0.1 µM [2, 11]: 0%; inhibition at 0.01 µM [2, 12]: 0%
CC(C)=CCC/C(C)=C/Cc1c(O)c(CC=C(C)C)c2c(c1O)C(=O)C13OC1C1CC4C(C)(C)OC(C/C=C(\C)C(=O)O)(CC1=O)C43O2 (stereo not shown) [8,9-epoxy gambogenic acid]	–	–	–	–	–	potent (Potent: 10^−6M inhibition rate≧75% or 10^−7M inhibition rate>50%)	–	–	–	–	–	potent (Potent: 10^−6M inhibition rate≧75% or 10^−7M inhibition rate>50%)	inhibition at 100 µM [1, 3]: 100%; inhibition at 10 µM [1, 4]: 100%; inhibition at 1 µM [1, 5]: 80%; inhibition at 0.1 µM [1, 6]: 0%; inhibition at 0.01 µM [1, 7]: 0%; inhibition at 100 µM [2, 8]: 100%; inhibition at 10 µM [2, 9]: 100%; inhibition at 1 µM [2, 10]: 100%; inhibition at 0.1 µM [2, 11]: 0%; inhibition at 0.01 µM [2, 12]: 0%
COC(=O)/C(C)=C\CC12OC(C)(C)C3CC(C=C4C(=O)c5c(OC)c(C/C=C(\C)CCC=C(C)C)c(O)c(CC=C(C)C)c5OC431)C2=O (stereo not shown) [6-methoxy methyl ester gambogenic acid]	100	100	80	0	0	potent (Potent: 10^−6M inhibition rate≧75% or 10^−7M inhibition rate>50%)	100	100	100	0	0	potent (Potent: 10^−6M inhibition rate≧75% or 10^−7M inhibition rate>50%)	–
CC(C)=CCC/C(C)=C/Cc1c(O)c(CC=C(C)C)c2c(c1O)C(=O)C1=CC3CC4C(C)(C)OC(C/C=C(/C)C(=O)N5CCCCC5)(C3=O)C14O2 (stereo not shown) [piperidine gambogenic acid]	100	100	67	0	0	invalid (Invalid: 10^−5M inhibition rate<85%)	100	100	70	0	0	invalid (Invalid: 10^−5M inhibition rate<85%)	–

From US9187491B2, “Gambogenic acid derivatives, preparation method and application thereof” (Ninth People's Hospital, School Medicine Shanghai Jiao Tong …, priority 2012, dated 2015)
